Where “and” joins values, the source holds several entries; their conditions need not be identical. Identical values can stand only once. Like-named read-outs stand apart in the source and are kept apart here.
Columns and labels:
TR α1, β1 and β2 = conditions: in vitro studies; cited from earlier work
[1] = Body weight, LDLr+/− mice on Western Diet, daily oral T2; type: in vivo; parameters: Body weight, Ave: unit not given here
Description: (§1) Mice in the study were fed a standard lab chow referred to as the “Western Diet.” The overall level of fat and the saturated nature of the fat are representative diets typical in the industrialized west that are linked to risk of cardiovascular disease in humans. The formula is used primarily with genetically manipulated rodent models that are susceptible to high cholesterol and cardiovascular disease. The diet may also be useful in diet-induced obesity, diabetes, and metabolic syndrome models. High cholesterol, obesity, and diabetes are each associated increased risk for cardiovascular disease. The composition of the Western Diet is shown below in Table 1.
(§2) C57 is a wild-type strain, LDLr+/− are a strain carrying one functional copy of the LDLr gene, and the LDLrO animals are total LDLr knockouts. The LDLr gene encodes for the LDL receptor protein, which is responsible for scavenging LDL with bound cholesterol from the blood and transporting it into cells. Both heterozygous and homozygous LDLr knockout animals develop very high serum cholesterol levels and are considered to be a good model for heterozygous and homozygous familial hypercholesterolemia in humans.
(§3) LDLr knockout animals have zero LDL receptor function. […] This effect was independent of weight loss.

TR β gene expression = conditions: cited from earlier work
LDLr0 [2] = assay: Serum triglycerides, LDLr knockout mice on Western Diet, daily oral T2; type: in vivo; conditions: low and high dose T2
Description: as §1, §2, §3

LDLr+/− [3] = assay: Blood Sugar (serum glucose), LDLr+/− mice on Western Diet, daily oral T2; type: in vivo; conditions: for Blood Sugar, individual animal: LDLr+/− mice, Western Diet
Description: as §1, §2, §3

[4] = test system: thyroid receptor homodimer; conditions: in contrast to T3; cited from earlier work
[5] = test system: growth hormone gene expression; conditions: cited from earlier work
rats = conditions: 250 mcg/kg p.o. q.d. for 30 days, compared to controls; cited from earlier work
C57 [6] = assay: Serum triglycerides, C57 mice on Western Diet, daily oral T2; type: in vivo; conditions: C57, low and high dose T2
Description: as §1, §2, §3

C57 [7] = assay: Blood Sugar (serum glucose), C57 mice on Western Diet, daily oral T2; type: in vivo; conditions: for Blood Sugar, individual animal: C57 mice, Western Diet
Description: as §1, §2, §3

[8] = Body weight, C57 mice on Western Diet, daily oral T2; type: in vivo
Description: as §1, §2, §3

LDLr0 [9] = assay: Blood Sugar (serum glucose), LDLr knockout mice on Western Diet, daily oral T2; type: in vivo; conditions: for Blood Sugar, individual animal: LDLr0 mice, Western Diet
Description: as §1, §2, §3

[10] = Body weight, LDLr knockout mice on Western Diet, daily oral T2; type: in vivo
Description: as §1, §2, §3

LDLr+/− [11] = assay: Serum triglycerides, LDLr+/− mice on Western Diet, daily oral T2; type: in vivo; conditions: low and high dose T2
Description: as §1, §2, §3

[12] = test system: middle cerebral artery occlusion (MCAO) stroke model in mice; conditions: cited from earlier work
[13] = test system: vesicular monoamine transporter; conditions: cited from earlier work
mice [14] = conditions: cited from earlier work
[15] = target: norepenephrin transporter (Homo sapiens, UniProt P23975); conditions: cited from earlier work
[16] = test system: Siberian hamsters (Phodopus sungorus); conditions: cited from earlier work
[17] = target: trace amine-associated receptor 1 (TAAR1) (Homo sapiens, UniProt Q96RJ0); conditions: cited from earlier work
[18] = test system: rat working heart preparation; conditions: cited from earlier work
dopamine transporter = dopamine transporter (Homo sapiens, UniProt Q01959); conditions: cited from earlier work
mice [19] = conditions: single dose T1AM (normal 0.83); cited from earlier work
serotonin transporter = serotonin transporter (Homo sapiens, UniProt P31645); conditions: cited from earlier work
[20] = target: serotonin 5HT-2c receptor (Homo sapiens, UniProt P28335); conditions: cited from earlier work
[21] = target: alpha-2A adrenergic receptor (Homo sapiens, UniProt P08913); conditions: cited from earlier work
mice [22] = conditions: cited from earlier work; remark: listed apart in the source
[23] = test system: hypercholesterolemic patients; conditions: cited from earlier work; for decrease in body weight: 300 mg daily for 8 months

Sequence of norepenephrin transporter (P23975 whole entry): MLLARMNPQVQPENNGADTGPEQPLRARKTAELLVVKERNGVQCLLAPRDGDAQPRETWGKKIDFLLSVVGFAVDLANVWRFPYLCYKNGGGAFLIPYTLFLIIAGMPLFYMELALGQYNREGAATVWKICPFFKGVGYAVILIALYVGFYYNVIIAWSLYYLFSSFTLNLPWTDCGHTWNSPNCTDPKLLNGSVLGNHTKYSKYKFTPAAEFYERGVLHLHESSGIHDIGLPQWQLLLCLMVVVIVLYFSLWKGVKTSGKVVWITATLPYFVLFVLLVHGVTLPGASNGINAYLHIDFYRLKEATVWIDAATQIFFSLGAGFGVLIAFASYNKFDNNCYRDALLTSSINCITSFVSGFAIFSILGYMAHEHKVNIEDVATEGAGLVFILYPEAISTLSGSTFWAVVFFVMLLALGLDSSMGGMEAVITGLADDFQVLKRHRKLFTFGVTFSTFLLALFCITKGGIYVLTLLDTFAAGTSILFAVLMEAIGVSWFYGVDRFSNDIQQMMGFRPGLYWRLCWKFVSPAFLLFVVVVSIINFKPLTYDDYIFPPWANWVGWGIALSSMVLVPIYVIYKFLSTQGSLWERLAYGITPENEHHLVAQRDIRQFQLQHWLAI
Sequence of trace amine-associated receptor 1 (TAAR1) (Q96RJ0 whole entry, species assumed): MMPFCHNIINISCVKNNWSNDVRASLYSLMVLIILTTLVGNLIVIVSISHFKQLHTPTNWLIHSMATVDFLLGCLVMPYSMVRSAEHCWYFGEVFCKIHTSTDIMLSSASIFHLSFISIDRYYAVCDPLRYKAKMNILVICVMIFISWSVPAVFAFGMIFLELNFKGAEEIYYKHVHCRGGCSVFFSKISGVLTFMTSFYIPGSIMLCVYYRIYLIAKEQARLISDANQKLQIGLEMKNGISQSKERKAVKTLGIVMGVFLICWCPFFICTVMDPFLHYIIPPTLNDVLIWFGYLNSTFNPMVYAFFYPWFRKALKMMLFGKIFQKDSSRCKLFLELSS
Sequence of dopamine transporter (Q01959 whole entry): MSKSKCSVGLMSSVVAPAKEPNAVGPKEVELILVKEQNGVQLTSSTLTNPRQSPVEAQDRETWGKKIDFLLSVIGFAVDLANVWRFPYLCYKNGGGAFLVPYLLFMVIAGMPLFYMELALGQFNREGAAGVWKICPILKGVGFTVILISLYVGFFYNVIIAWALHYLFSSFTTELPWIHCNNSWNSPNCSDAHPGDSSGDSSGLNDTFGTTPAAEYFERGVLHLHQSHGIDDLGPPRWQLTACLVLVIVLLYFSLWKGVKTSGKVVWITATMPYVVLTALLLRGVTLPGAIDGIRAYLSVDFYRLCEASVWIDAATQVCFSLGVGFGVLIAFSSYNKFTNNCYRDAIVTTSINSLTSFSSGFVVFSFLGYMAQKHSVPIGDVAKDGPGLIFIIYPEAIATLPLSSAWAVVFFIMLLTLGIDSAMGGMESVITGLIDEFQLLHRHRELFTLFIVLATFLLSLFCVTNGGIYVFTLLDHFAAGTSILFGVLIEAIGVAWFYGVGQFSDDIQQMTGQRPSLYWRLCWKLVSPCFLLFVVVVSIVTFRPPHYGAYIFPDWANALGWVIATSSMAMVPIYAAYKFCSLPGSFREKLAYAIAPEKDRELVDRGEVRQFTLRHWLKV
Sequence of alpha-2A adrenergic receptor (P08913 whole entry): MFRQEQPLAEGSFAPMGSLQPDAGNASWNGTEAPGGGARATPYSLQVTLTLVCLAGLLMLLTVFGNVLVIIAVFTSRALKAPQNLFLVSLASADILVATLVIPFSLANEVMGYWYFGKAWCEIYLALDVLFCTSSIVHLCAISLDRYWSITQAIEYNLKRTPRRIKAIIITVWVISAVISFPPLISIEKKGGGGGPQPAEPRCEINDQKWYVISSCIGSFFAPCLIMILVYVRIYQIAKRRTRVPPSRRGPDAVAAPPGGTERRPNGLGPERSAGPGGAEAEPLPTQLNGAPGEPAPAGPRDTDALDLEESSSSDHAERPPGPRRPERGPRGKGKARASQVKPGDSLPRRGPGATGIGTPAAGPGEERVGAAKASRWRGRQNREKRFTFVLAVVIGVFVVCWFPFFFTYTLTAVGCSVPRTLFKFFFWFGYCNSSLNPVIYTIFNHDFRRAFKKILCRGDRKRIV
Sequence of serotonin 5HT-2c receptor (P28335 33-458): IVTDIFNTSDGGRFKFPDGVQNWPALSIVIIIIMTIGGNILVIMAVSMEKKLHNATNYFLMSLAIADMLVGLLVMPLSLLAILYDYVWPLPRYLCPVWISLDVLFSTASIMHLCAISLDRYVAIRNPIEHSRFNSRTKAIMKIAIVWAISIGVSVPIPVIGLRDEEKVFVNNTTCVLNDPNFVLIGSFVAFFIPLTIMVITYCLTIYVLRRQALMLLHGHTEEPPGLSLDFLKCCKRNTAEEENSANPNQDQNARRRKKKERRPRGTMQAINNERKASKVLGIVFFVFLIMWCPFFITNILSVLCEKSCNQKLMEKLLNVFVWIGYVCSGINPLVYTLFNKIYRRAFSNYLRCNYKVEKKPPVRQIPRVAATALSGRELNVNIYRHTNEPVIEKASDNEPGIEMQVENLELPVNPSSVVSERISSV
Sequence of serotonin transporter (P31645 whole entry): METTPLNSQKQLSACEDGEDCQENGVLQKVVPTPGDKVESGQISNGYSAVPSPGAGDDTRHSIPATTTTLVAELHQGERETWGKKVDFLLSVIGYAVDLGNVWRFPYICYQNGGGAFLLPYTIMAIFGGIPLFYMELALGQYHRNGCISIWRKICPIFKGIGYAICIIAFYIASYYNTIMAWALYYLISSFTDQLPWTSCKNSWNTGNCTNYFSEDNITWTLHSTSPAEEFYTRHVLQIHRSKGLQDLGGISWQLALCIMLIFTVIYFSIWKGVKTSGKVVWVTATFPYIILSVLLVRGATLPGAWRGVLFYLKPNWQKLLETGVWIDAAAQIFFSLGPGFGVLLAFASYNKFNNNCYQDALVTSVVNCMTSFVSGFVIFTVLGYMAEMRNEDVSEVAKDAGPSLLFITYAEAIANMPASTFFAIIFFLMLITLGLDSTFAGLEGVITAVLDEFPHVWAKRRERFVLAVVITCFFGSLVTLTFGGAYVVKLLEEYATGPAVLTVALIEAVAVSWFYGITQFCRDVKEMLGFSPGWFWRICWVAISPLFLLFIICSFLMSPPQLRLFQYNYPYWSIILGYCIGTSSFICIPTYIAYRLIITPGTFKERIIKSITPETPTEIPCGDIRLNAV

## N[C@@H](Cc1cc(I)c(Oc2ccc(O)c(I)c2)c(I)c1)C(=O)O [T3, (2S)-2-amino-3-[4-(4-hydroxy-3-iodophenoxy)-3,5-diiodophenyl]propanoic acid]
TR α1, β1 and β2
  affinity for TR α1, β1 and β2, fold greater than that of T2: 40-500 fold

## N[C@@H](Cc1cc(I)c(Oc2ccc(O)cc2)c(I)c1)C(=O)O [T2, (2S)-2-amino-3-[4-(4-hydroxyphenoxy)-3,5-diiodophenyl]propanoic acid]
[1]; High Dose T2, Day 1, individual animal, in g (unit assumed)
  Body weight: 31.4
[1]; High Dose T2, Day 2, individual animal, in g (unit assumed)
  Body weight: 31.0 and 29.1 and 29.9
[1]; High Dose T2, Day 4, individual animal, in g (unit assumed)
  Body weight: 29.0 and 27.9
[1]; Low Dose T2, Day 2, group average
  Body weight, Ave: 28.1
[1]; Low Dose T2, Day 2, individual animal
  Body weight: 282
[1]; Low Dose T2, Day 3, individual animal
  Body weight: 29.7 and 31.4
[1]; Low Dose T2, Day 4, individual animal
  Body weight: 27.4
[1]; Low Dose T2, Day 5, individual animal
  Body weight: 29.5
[1]; Low Dose T2, Day 6, individual animal
  Body weight: 29.1
[1]; Low Dose T2, Day 7, individual animal
  Body weight: 31.0 and 29.6 (2×) and 28.2
[1]; low and high dose T2
  effect on weight gain: did not affect
TR β gene expression
  less potent than T3 in decreasing TR β gene expression: 50%
LDLr0 [2]
  effect on serum triglyceride levels: did not affect
LDLr+/− [3]; 1 Week High Dose T2
  Blood Sugar, individual animal: 99 and 94 and 80
LDLr+/− [3]; 1 Week Low Dose T2
  Blood Sugar, individual animal: 210
LDLr+/− [3]; all genetic groups (LDLr+/−), high doses of T2, vs controls
  lower blood sugar levels, average: 45-50%
[4]
  effect on thyroid receptor homodimer formation: no effect
[5]
  potency relative to T3 in increasing growth hormone gene expression: 1/100
rats
  decrease body weight: 13%
  decrease hepatic fat mass: 50%
  increase hepatic fat oxidation: 42%
  lower cholesterol: 18%
  lower serum triglycerides: 52%
C57 [6]
  effect on serum triglyceride levels: did not affect
C57 [7]; 1 Week High Dose T2
  Blood Sugar, individual animal: 74 and 120 and 92
C57 [7]; 1 Week Low Dose T2
  Blood Sugar, individual animal: 190 and 120
C57 [7]; all genetic groups (C57), high doses of T2, vs controls
  lower blood sugar levels, average: 45-50%
[8]; C57, High Dose T2, Day 1, group average
  Body weight, Ave: 28.1 g
[8]; C57, High Dose T2, Day 1, individual animal
  Body weight: 29.6 (2×) and 24.9 and 26.7
[8]; C57, High Dose T2, Day 2, individual animal, in g (unit assumed)
  Body weight: 29.5 and 25.8 and 29.7
[8]; C57, High Dose T2, Day 3, individual animal, in g (unit assumed)
  Body weight: 25.1 and 29.9 and 27.2
[8]; C57, High Dose T2, Day 4, individual animal, in g (unit assumed)
  Body weight: 29.1 and 28.7
[8]; C57, High Dose T2, Day 5, individual animal, in g (unit assumed)
  Body weight: 29.1 and 28.5
[8]; C57, Low Dose T2, Day 2, individual animal
  Body weight: 24.9
[8]; C57, Low Dose T2, Day 4, individual animal
  Body weight: 25.1
[8]; C57, Low Dose T2, Day 6, individual animal
  Body weight: 29.9 and 24.8 and 28.7
[8]; C57, low and high dose T2
  effect on weight gain: did not affect
LDLr0 [9]; 1 Week High Dose T2
  Blood Sugar, individual animal: 87
LDLr0 [9]; 1 Week Low Dose T2
  Blood Sugar, individual animal: 54 and 79
LDLr0 [9]; all genetic groups (LDLr knockout), high doses of T2, vs controls
  lower blood sugar levels, average: 45-50%
[10]; LDLr0, High Dose T2, Day 1, individual animal, in g (unit assumed)
  Body weight: 27.4
[10]; LDLr0, High Dose T2, Day 2, individual animal, in g (unit assumed)
  Body weight: 23.1 and 24.8
[10]; LDLr0, High Dose T2, Day 3, individual animal, in g (unit assumed)
  Body weight: 22.8
[10]; LDLr0, High Dose T2, Day 4, individual animal, in g (unit assumed)
  Body weight: 24.8
[10]; LDLr0, High Dose T2, Day 5, individual animal, in g (unit assumed)
  Body weight: 23.1
[10]; LDLr0, Low Dose T2, Day 6, individual animal
  Body weight: 23.1
[10]; LDLr knockout, low and high dose T2
  effect on weight gain: did not affect
LDLr+/− [11]
  effect on serum triglyceride levels: did not affect

## NCCc1ccc(Oc2ccc(O)cc2)c(I)c1 [T1AM, 3-iodothyronamine]
[12]
  reduction of infarct volume: 40%
[13]
  vesicular monoamine transporter function: binds and inhibits
Mice [14]; mice, depending on the T1AM dose
  time for body temperature to return to normal: 4 to 6 h
Mice [14]; mice, injection
  drop in body temperature: about 10 °C
Mice [14]; mice
  time of body temperature nadir after injection: about 1 hour
[15]
  norepenephrin transporter function: binds and inhibits
[16]; Siberian hamsters, single dose T1AM (normal 0.90)
  respiratory quotient (RQ) value: approximately 0.7
[16]; Siberian hamsters
  time of urine ketone content peak post-injection: 16 h
[16]; in vivo
  time to complete RQ shift post-injection: about 4.5 hours
[16]; summer acclimatized Siberian hamsters
  persistence of 0.7 RQ after the T1AM injection: at least 24 h
[17]
  TAAR1 activity: potent agonist
[18]; rat working heart at 37° C., compound in perfusion buffer
  heart rate and systolic aortic pressure: large and immediate decreases
Dopamine transporter
  dopamine transporter function: binds and inhibits
Mice [19]
  respiratory quotient (RQ) value: approximately 0.7
Serotonin transporter
  serotonin transporter function: binds and inhibits
[20]
  serotonin 5HT-2c receptor activity: agonist
[21]
  alpha-2A adrenergic receptor activity: agonist
Mice [22]
  time for blood glucose to return to baseline: 3 to 4 h
  time of blood glucose peak after the injection: 1 h
Mice [22]; injection, at peak
  increased blood glucose: 2-5 fold

## NCCc1ccc(Oc2ccc(O)cc2)cc1 [T0AM, thyronamine]
Mice [14]; similar results reported as for T1AM
  potency on body temperature compared with T1AM: less potent
[18]; rat working heart preparation
  potency as compared to T1AM (fold less potent): about 10 fold

## N[C@H](Cc1cc(I)c(Oc2ccc(O)cc2)c(I)c1)C(=O)O [3,5-D-T2]
[23]; 300 mg daily
  patients with coronary artery disease with increased anginal symptoms: 7 of 13
[23]; at 20 weeks, 300 mg daily
  total serum cholesterol decrease: 20%
[23]; euthyroid subjects
  decrease in body weight: 5%
[23]; human, in vivo
  effect of doses of less than 250 mg/day: ineffective
[23]; hypothyroid patients
  decrease in body weight: 8%
[23]; increase from 76, 300 mg daily
  mean heart rate on treatment: 88 beats per minute

— patent publication US20140018426A1, “FOOD OR BEVERAGE COMPOSITION FORTIFIED WITH THYRONAMINES AND/OR THYRONAMINE PRECURSORS” (priority 2009, published 2014)
